Literature values as cited in US8324425B2, “Method for producing bicyclic γ-amino acid derivative” (Daiichi Sankyo Company, Limited, priority 2009, dated 2012).

What was measured:
[1] = according to patients' own evaluation; Non Patent Literature 3
[2] = according to patients' own evaluation; Non Patent Literature 4

| Structure (SMILES) | efficacy in the treatment of postherpetic neuralgia [1] | efficacy in the treatment of painful diabetic neuropathy [2] |
| --- | --- | --- |
| NCC1(CC(=O)O)CCCCC1 [gabapentine] | approximately 60% |  |
| CC(C)C[C@H](CN)CC(=O)O [pregabalin] |  | approximately 50% |
